# Values quoted from earlier work as cited in US20080039428A1, “Antiretroviral combination therapy” (Panacos Pharmaceuticals, Inc., priority 2006, published 2008).
# System: HIV
structure (smiles),measurement,value
"C=C(C)[C@@H]1CC[C@]2(C(=O)O)CC[C@]3(C)[C@H](CC[C@@H]4[C@@]5(C)CC[C@H](OC(=O)CC(C)(C)C(=O)O)C(C)(C)[C@@H]5CC[C@]43C)[C@@H]12 [DSB, 3-O-(3′,3′-dimethylsuccinyl)betulinic acid]",inhibition of HIV replication,potent inhibitor of HIV replication
